The results in this text go back to ChEMBL document CHEMBL1201862, “PubChem BioAssay data set” (2004).

Common to all, as to test: NCI anticancer screen, dose series, 48 h
The subject of experiment [1] is UACC-62.
The subject of experiment [2] is SN12C.
The subject of experiment [3] is U-251.
The subject of experiment [4] is HT-29.
The subject of experiment [5] is KM-20L2.
The subject of experiment [6] is K562.
Experiment [7] relates to A549.
Experiment [8] deals with HL-60.
Experiment [9] relates to CAKI-1.
Experiment [10] has as its system RPMI-8226.
The subject of experiment [11] is COLO 205.
Experiment [12] concerns SF-295.
The test system of experiment [13] is UO-31.
In experiment [14] the test system is OVCAR-5.
The test system of experiment [15] is OVCAR-3.
Experiment [16] relates to DU-145.
Experiment [17] relates to MCF7.
In experiment [18] the test system is A498.
The test system of experiment [19] is PC-3.
In experiment [20] the test system is HCC 2998.

Each structure is given as a SMILES string.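 Each compound was tested at five concentrations against cells in 96-well plates for 48 hours. GI50: concentration for 50% inhibition of growth.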 Active and inactive are the calls of the source. No stated cut-off is given here; in the data, active = GI50 up to about 1.1 µM and inactive = higher.

For the compound `Cn1nc(-c2ccccc2)c(C(=O)/C=C/c2ccc(Cl)cc2)c(N2CCCC2)c1=O`, the GI50 in experiment [1] is 4.55 µM (inactive); in experiment [2] it was 5.94 µM (inactive); in experiment [3], 4.27 µM (inactive); in experiment [4] it was 2.21 µM (inactive); in [5] it was 3.78 µM (inactive); in experiment [6] it was 2.66 µM (inactive). Further, the GI50 is 4.36 µM (inactive) in [7]; 1.92 µM (inactive) in experiment [8]; 0.55 µM (active) in experiment [9]; 2.7 µM (inactive) in experiment [10]; 2.11 µM (inactive) in [11]; 0.632 µM (active) in [12]. In experiment [13], the GI50 is 8.51 µM (inactive).
In the case of `CC(=O)Nc1ccc(-c2nnc(SCC(=O)Nc3ccccc3C)o2)cc1`, the GI50 was > 100 µM (inactive) in [1]; > 100 µM (inactive) in experiment [2]; 66.7 µM (inactive) in experiment [3]; 38 µM (inactive) in [4]; 69.3 µM (inactive) in experiment [5]; 82.6 µM (inactive) in [6]. The GI50 in experiment [7] is > 100 µM (inactive); in experiment [14], > 100 µM (inactive); in experiment [8], 57.9 µM (inactive); in [10], 46.3 µM (inactive); in experiment [11], > 100 µM (inactive); in experiment [12], 89.7 µM (inactive). Also, the GI50 in [13] was 52 µM (inactive); in [15] it was 74.5 µM (inactive).
Consider `COc1ccc2nc3cc([N+](=O)[O-])ccc3c(Nc3ccc(S(=O)(=O)NC(C)=O)cc3)c2c1`, for which the GI50 in [1] is 73.3 µM (inactive); in experiment [2] it was > 100 µM (inactive); in experiment [3], 44.8 µM (inactive); in experiment [4], 65 µM (inactive); in [6] it was 37.2 µM (inactive); in experiment [16], 90.6 µM (inactive). The GI50 in experiment [7] was > 100 µM (inactive); in [17] it was 30.8 µM (inactive); in [18], > 100 µM (inactive); in experiment [19], 45.5 µM (inactive); in experiment [14], > 100 µM (inactive); in [8], 26.5 µM (inactive). The GI50 is 56.6 µM (inactive) in experiment [20]; > 100 µM (inactive) in [9]; 22.1 µM (inactive) in [10]; 51.3 µM (inactive) in experiment [11]; > 100 µM (inactive) in experiment [12]; 73.6 µM (inactive) in experiment [13]. Moreover, the GI50 in experiment [15] is 38.1 µM (inactive).
As for `CN(C)CC/C(=N\Nc1ccc(Cl)cc1Cl)c1ccccc1`, the GI50 in experiment [1] was 14.6 µM (inactive); in experiment [2], 12.6 µM (inactive); in experiment [3] it was 12.4 µM (inactive); in experiment [4], 14.3 µM (inactive); in experiment [5], 14.3 µM (inactive); in experiment [6], 14.3 µM (inactive). In addition, the GI50 in [7] was 15 µM (inactive); in experiment [18], 16.4 µM (inactive); in experiment [14], 16.9 µM (inactive); in experiment [8] it was 5.07 µM (inactive); in [10], 3.94 µM (inactive); in [11] it was 15.1 µM (inactive). Also, the GI50 in experiment [12] is 18.5 µM (inactive); in experiment [13] it was 2.37 µM (inactive); in experiment [15] it was 14 µM (inactive).
On to `CC(C)(C)OC(=O)c1cccnc1/C=N/O`, for which the GI50 was > 100 µM (inactive) in experiment [1]; > 100 µM (inactive) in experiment [2]; > 100 µM (inactive) in [3]; > 100 µM (inactive) in experiment [4]; 51.4 µM (inactive) in experiment [5]; > 100 µM (inactive) in experiment [6]. The GI50 in experiment [7] is > 100 µM (inactive); in experiment [14] it was > 100 µM (inactive); in experiment [8], > 100 µM (inactive); in [9], > 100 µM (inactive); in experiment [11], > 100 µM (inactive); in experiment [12] it was 78.7 µM (inactive). The GI50 in experiment [13] is > 100 µM (inactive); in experiment [15] it was 53.1 µM (inactive).
`CCC(=O)c1c(NOC2OC(COC(C)=O)C(OC(C)=O)C(OC(C)=O)C2OC(C)=O)nc(OC)n(C)c1=O` (stereo unspecified): the GI50 in experiment [1], in experiment [2], in experiment [3], in [4], in experiment [5] and in experiment [6] was > 100 µM (inactive) throughout. The GI50 in [7], in [14], in [20], in experiment [11] and in [12] was > 100 µM (inactive) each time.
On to `O=C(Nc1nc2ccccc2n1Cc1ccccc1)NC12CC3CC(CC(C3)C1)C2`, for which the GI50 in [1] was 41.9 µM (inactive); in [2], 82.8 µM (inactive); in experiment [3] it was 39 µM (inactive); in experiment [4] it was > 100 µM (inactive); in experiment [5] it was > 100 µM (inactive); in experiment [6], > 100 µM (inactive). Also, the GI50 is 71.9 µM (inactive) in experiment [7]; > 100 µM (inactive) in [14]; > 100 µM (inactive) in experiment [8]; > 100 µM (inactive) in [20]; 88.9 µM (inactive) in [9]; > 100 µM (inactive) in experiment [10]. Also, the GI50 in [11] was 48.5 µM (inactive); in experiment [12] it was 13.4 µM (inactive); in experiment [13], > 100 µM (inactive); in [15], 38.5 µM (inactive).
Take `CC1=CC(O)(c2ccc(-c3ccccc3Cl)cc2)OC1=O` (stereo unspecified): the GI50 in experiment [1], in [2], in [3], in experiment [4], in [5] and in [6] was > 100 µM (inactive) throughout. The GI50 in experiment [7], in experiment [14], in experiment [8], in [20], in experiment [9] and in experiment [10] was > 100 µM (inactive) throughout. Further, the GI50 in experiment [11], in experiment [12], in experiment [13] and in experiment [15] was > 100 µM (inactive) throughout.
With `CCOC(=O)C1=C(c2ccccc2)NC(c2ccccc2)=C(C(=O)OCC)c2c1c(=O)cc[nH]c2=O`, the GI50 in experiment [1] was 26.4 µM (inactive); in [2], > 100 µM (inactive); in experiment [3], > 100 µM (inactive); in experiment [4], 74.8 µM (inactive); in experiment [5] it was > 100 µM (inactive); in experiment [6], 39.9 µM (inactive). For the same compound, the GI50 in [7] was > 100 µM (inactive); in experiment [14] it was > 100 µM (inactive); in [8] it was > 100 µM (inactive); in experiment [20] it was > 100 µM (inactive); in [9], > 100 µM (inactive); in experiment [10] it was 53.1 µM (inactive). Moreover, the GI50 in experiment [11] was > 100 µM (inactive); in experiment [12] it was 86.7 µM (inactive); in experiment [13] it was > 100 µM (inactive); in experiment [15], > 100 µM (inactive).
Turning to `O=[N+]([O-])/C(Cl)=C(\NCCO)C(Cl)=C(Cl)Cl`, the GI50 in experiment [1] is 45.2 µM (inactive); in experiment [2], 43 µM (inactive); in [3], > 93.3 µM (inactive); in experiment [4], 57 µM (inactive); in [6] it was 8.2 µM (inactive); in [16], > 100 µM (inactive). The GI50 in [7] is > 100 µM (inactive); in experiment [17] it was 52 µM (inactive); in experiment [18], > 100 µM (inactive); in [19], 87.3 µM (inactive); in experiment [14] it was > 100 µM (inactive); in experiment [8], 4.35 µM (inactive). Moreover, the GI50 is > 100 µM (inactive) in experiment [20]; > 86.7 µM (inactive) in experiment [9]; 16.1 µM (inactive) in experiment [10]; 27.5 µM (inactive) in [11]; > 100 µM (inactive) in experiment [12]; > 74.5 µM (inactive) in experiment [13]. For the same compound, in experiment [15], the GI50 was 60.4 µM (inactive).
`COc1cc(/C=c2/c3ccccc3n3c2cc(-c2ccccc2)[n+]3C)cc(OC)c1OC`: the GI50 is 3.69 µM (inactive) in experiment [1]; 2.82 µM (inactive) in [2]; 3.7 µM (inactive) in experiment [3]; 3.07 µM (inactive) in [4]; 2.74 µM (inactive) in experiment [6]; 5.47 µM (inactive) in experiment [16]. The GI50 in experiment [7] is 4.18 µM (inactive); in [17] it was 4.54 µM (inactive); in [18], 16 µM (inactive); in experiment [19], 3.74 µM (inactive); in experiment [14], 4.85 µM (inactive); in experiment [8] it was 2.39 µM (inactive). The GI50 in experiment [20] was 6.22 µM (inactive); in experiment [9], 3.92 µM (inactive); in [10], 2.55 µM (inactive); in experiment [11] it was 1.69 µM (inactive); in experiment [12], 5.64 µM (inactive); in [13] it was 5.12 µM (inactive). Also, the GI50 in experiment [15] is 2.43 µM (inactive).
`Cc1cccc(NC(=S)N/N=C(/c2ccccc2)c2ccccn2)c1`: the GI50 in [1] is 0.267 µM (active); in experiment [2], 0.359 µM (active); in experiment [3], 0.0299 µM (active); in experiment [4], 0.0285 µM (active); in experiment [6], < 0.0135 µM (active); in [16], 0.942 µM (active). The GI50 was 0.22 µM (active) in experiment [7]; < 0.0172 µM (active) in [17]; 1.98 µM (inactive) in [18]; < 0.0143 µM (active) in experiment [19]; 0.0266 µM (active) in [14]; < 0.0137 µM (active) in experiment [8]. The GI50 is 2.84 µM (inactive) in [20]; 0.249 µM (active) in [9]; < 0.0182 µM (active) in experiment [10]; < 0.0163 µM (active) in [11]; 0.173 µM (active) in experiment [12]; 0.385 µM (active) in [13]. Moreover, the GI50 in [15] is < 0.0182 µM (active).
